In PubChem BioAssay AID248 (DTP/NCI, 2004):
“And” between values parts separate entries of the source, which are not always exact repeats. Equal entries are not always repeated. Inconclusive results and toxic doses are left out. Rule as the data show it: active = T/C of 150% or more; inactive = T/C below 125%.

System: L1210 leukemia ip in BDF1 mice, survival T/C
Test: NCI In Vivo Anticancer Drug Screen. Data for tumor model L1210 Leukemia (intraperitoneal) in B6D2F1 (BDF1) mice
Conditions: endpoint: mean survival time, higher = longer survival
How it was run: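 Tumor cells were implanted, animals were treated, and survival was followed. The result divides the treated measurement by the vehicle-control measurement.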

[1] = dose: 100.0 mg/kg/injection, schedule: Q01DX001 (ip), vehicle: carboxymethylcellulose (CMC)
[2] = dose: 200.0 mg/kg/injection, schedule: Q01DX001 (ip), vehicle: carboxymethylcellulose (CMC)
[3] = dose: 400.0 mg/kg/injection, schedule: Q01DX001 (ip), vehicle: carboxymethylcellulose (CMC)
[4] = dose: 100.0 mg/kg/injection, schedule: Q04DX003 (ip), vehicle: saline
[5] = dose: 200.0 mg/kg/injection, schedule: Q04DX003 (ip), vehicle: saline
[6] = dose: 100.0 mg/kg/injection, schedule: Q04DX003 (ip), vehicle: Klucel (hydroxypropylcellulose) (HPC)
[7] = dose: 200.0 mg/kg/injection, schedule: Q04DX003 (ip), vehicle: Klucel (hydroxypropylcellulose) (HPC)
[8] = dose: 100.0 mg/kg/injection, schedule: Q04DX002 (ip), vehicle: Klucel (hydroxypropylcellulose) (HPC)
[9] = dose: 200.0 mg/kg/injection, schedule: Q04DX002 (ip), vehicle: Klucel (hydroxypropylcellulose) (HPC)
[10] = dose: 400.0 mg/kg/injection, schedule: Q04DX002 (ip), vehicle: Klucel (hydroxypropylcellulose) (HPC)
[11] = dose: 100.0 mg/kg/injection, schedule: Q01DX009 (ip), vehicle: Klucel (hydroxypropylcellulose) (HPC)
[12] = dose: 200.0 mg/kg/injection, schedule: Q01DX009 (ip), vehicle: Klucel (hydroxypropylcellulose) (HPC)
[13] = dose: 400.0 mg/kg/injection, schedule: Q01DX009 (ip), vehicle: Klucel (hydroxypropylcellulose) (HPC)
[14] = dose: 25.0 mg/kg/injection, schedule: Q04DX002 (ip), vehicle: saline
[15] = dose: 50.0 mg/kg/injection, schedule: Q04DX002 (ip), vehicle: saline
[16] = dose: 100.0 mg/kg/injection, schedule: Q04DX002 (ip), vehicle: saline
[17] = dose: 100.0 mg/kg/injection, schedule: Q01DX001 (ip), vehicle: saline
[18] = dose: 200.0 mg/kg/injection, schedule: Q01DX001 (ip), vehicle: saline
[19] = dose: 400.0 mg/kg/injection, schedule: Q01DX001 (ip), vehicle: saline

Measured: T/C

Cc1cc(C(=O)O)c(C(=O)O)c(=O)[nH]1
inactive: dose: 75.0 mg/kg/injection, schedule: Q01DX001 (ip), vehicle: other 111 % of control | dose: 150.0 mg/kg/injection, schedule: Q01DX001 (ip), vehicle: other 104 % of control | dose: 300.0 mg/kg/injection, schedule: Q01DX001 (ip), vehicle: other 102 % of control

CCCCCCC(=O)N(CCCCC)CCCCC
inactive: [1] 98 % of control | dose: 100.0 mg/kg/injection, schedule: Q01DX009 (ip), vehicle: carboxymethylcellulose (CMC) 96 % of control and 97 % of control | dose: 100.0 mg/kg/injection, schedule: Q04DX002 (ip), vehicle: carboxymethylcellulose (CMC) 100 % of control and 102 % of control | dose: 100.0 mg/kg/injection, schedule: Q04DX003 (ip), vehicle: carboxymethylcellulose (CMC) 93 % of control | [2] 94 % of control | dose: 200.0 mg/kg/injection, schedule: Q01DX009 (ip), vehicle: carboxymethylcellulose (CMC) 96 % of control and 105 % of control | dose: 200.0 mg/kg/injection, schedule: Q04DX002 (ip), vehicle: carboxymethylcellulose (CMC) 98 % of control and 100 % of control | dose: 200.0 mg/kg/injection, schedule: Q04DX003 (ip), vehicle: carboxymethylcellulose (CMC) 95 % of control | [3] 104 % of control | dose: 400.0 mg/kg/injection, schedule: Q04DX002 (ip), vehicle: carboxymethylcellulose (CMC) 98 % of control and 103 % of control | dose: 400.0 mg/kg/injection, schedule: Q04DX003 (ip), vehicle: carboxymethylcellulose (CMC) 97 % of control

CCN(CC)CCNC(C)=O
inactive: [4] 104 % of control | [5] 101 % of control | dose: 400.0 mg/kg/injection, schedule: Q04DX003 (ip), vehicle: saline 97 % of control

COc1nc(Cl)nc(Cl)c1Cl (tested in a mixture with another compound)
inactive: dose: 50.0 mg/kg/injection, schedule: Q01DX009 (ip), vehicle: other 87 % of control | dose: 100.0 mg/kg/injection, schedule: Q01DX009 (ip), vehicle: other 102 % of control

CC(CCN=Cc1ccccc1O)N=Cc1ccccc1O (configuration not stated)
inactive: dose: 50.0 mg/kg/injection, schedule: Q01DX001 (ip), vehicle: other 107 % of control | dose: 100.0 mg/kg/injection, schedule: Q01DX001 (ip), vehicle: other 89 % of control | dose: 200.0 mg/kg/injection, schedule: Q01DX001 (ip), vehicle: other 97 % of control | dose: 400.0 mg/kg/injection, schedule: Q01DX001 (ip), vehicle: other 95 % of control

CCN(CC)c1ccc(-c2nc3ccccc3s2)cc1
inactive: dose: 50.0 mg/kg/injection, schedule: Q04DX003 (ip), vehicle: Klucel (hydroxypropylcellulose) (HPC) 99 % of control | [6] 94 % of control | [7] 91 % of control

CCn1cnc2cc(N=Cc3ccc(N(CCCl)CCCl)cc3Cl)ccc21
inactive: [8] 117 % of control | [9] 102 % of control | [10] 98 % of control

CCOCCC=O
inactive: dose: 50.0 mg/kg/injection, schedule: Q01DX009 (ip), vehicle: saline 97 % of control | dose: 100.0 mg/kg/injection, schedule: Q01DX009 (ip), vehicle: saline 91 % of control | dose: 200.0 mg/kg/injection, schedule: Q01DX009 (ip), vehicle: saline 91 % of control

O=C(O)CCCC1CC(=O)c2c(c(O)c3ccccc3c2O)C1=O (configuration not stated)
inactive: dose: 50.0 mg/kg/injection, schedule: Q01DX009 (ip), vehicle: saline with Tween-80 101 % of control | dose: 100.0 mg/kg/injection, schedule: Q01DX009 (ip), vehicle: saline with Tween-80 103 % of control | dose: 100.0 mg/kg/injection, schedule: Q04DX003 (ip), vehicle: saline with Tween-80 101 % of control | dose: 200.0 mg/kg/injection, schedule: Q01DX009 (ip), vehicle: saline with Tween-80 101 % of control | dose: 200.0 mg/kg/injection, schedule: Q04DX003 (ip), vehicle: saline with Tween-80 95 % of control | dose: 400.0 mg/kg/injection, schedule: Q04DX003 (ip), vehicle: saline with Tween-80 95 % of control

Cc1c(C)c(Cl)c(C)c(Cl)c1O
inactive: [11] 94 % of control | [6] 98 % of control | [12] 89 % of control | [7] 93 % of control | [13] 91 % of control | dose: 400.0 mg/kg/injection, schedule: Q04DX003 (ip), vehicle: Klucel (hydroxypropylcellulose) (HPC) 105 % of control

NC(=O)N1c2ccccc2C=Cc2ccccc21
inactive: dose: 12.5 mg/kg/injection, schedule: Q01DX009 (ip), vehicle: Klucel (hydroxypropylcellulose) (HPC) 93 % of control | dose: 25.0 mg/kg/injection, schedule: Q01DX009 (ip), vehicle: Klucel (hydroxypropylcellulose) (HPC) 93 % of control | dose: 50.0 mg/kg/injection, schedule: Q01DX009 (ip), vehicle: Klucel (hydroxypropylcellulose) (HPC) 96 % of control | [11] 89 % of control | [8] 103 % of control | [12] 94 % of control | [9] 110 % of control | [10] 110 % of control

C[N+](C)(C)CCNC(=O)C12CC3CC(CC(C3)C1)C2
inactive: [14] 89 % of control | [15] 94 % of control | [16] 86 % of control

O=C(Nc1cccc(S(=O)(=O)F)c1)c1ccc([N+](=O)[O-])cc1
inactive: [17] 107 % of control | [18] 103 % of control | [19] 90 % of control

COc1ccc(C2=C(C)CC3c4cc(OC)c(OC)cc4CCN3C2)cc1OC (configuration not stated)
inactive: dose: 52.0 mg/kg/injection, schedule: Q01DX001 (ip), vehicle: carboxymethylcellulose (CMC) 101 % of control | dose: 78.0 mg/kg/injection, schedule: Q01DX001 (ip), vehicle: carboxymethylcellulose (CMC) 104 % of control | dose: 177.0 mg/kg/injection, schedule: Q01DX001 (ip), vehicle: carboxymethylcellulose (CMC) 118 % of control

c1ccc2c(c1)OCCOCCOCCOCCO2
inactive: dose: 6.25 mg/kg/injection, schedule: Q04DX002 (ip), vehicle: saline 89 % of control | dose: 12.5 mg/kg/injection, schedule: Q04DX002 (ip), vehicle: saline 103 % of control | [14] 113 % of control | [15] 94 % of control

CCCOC(=O)C(CC(C)(C)C)CC(C)(C)C
inactive: [17] 104 % of control | [18] 104 % of control | [19] 101 % of control

c1cnc(N2CCCCC2)cn1
inactive: [17] 94 % of control | [18] 96 % of control | [19] 102 % of control

CC1(C)N=C2OCCN2C1=O
inactive: dose: 12.5 mg/kg/injection, schedule: Q04DX003 (ip), vehicle: saline 101 % of control | dose: 25.0 mg/kg/injection, schedule: Q04DX003 (ip), vehicle: saline 111 % of control | dose: 50.0 mg/kg/injection, schedule: Q04DX003 (ip), vehicle: saline 93 % of control | [4] 101 % of control | [5] 98 % of control and 102 % of control | dose: 300.0 mg/kg/injection, schedule: Q04DX003 (ip), vehicle: saline 104 % of control

O=C([S][Ge]([c]1ccccc1)([c]1ccccc1)[c]1ccccc1)c1ccc([N+](=O)[O-])cc1
inactive: [11] 114 % of control | [12] 92 % of control

COc1ccc(Cl)cc1NS(=O)(=O)c1ccc(Cl)c([N+](=O)[O-])c1
inactive: [11] 98 % of control | [12] 109 % of control | [13] 98 % of control

CC(=O)NC(CC(N)=O)C(=O)O (configuration not stated)
inactive: [16] 96 % of control | dose: 200.0 mg/kg/injection, schedule: Q04DX002 (ip), vehicle: saline 99 % of control | dose: 400.0 mg/kg/injection, schedule: Q04DX002 (ip), vehicle: saline 99 % of control

O=C[N]([Hg][Cl])c1ccccc1
inactive: dose: 0.39 mg/kg/injection, schedule: Q01DX009 (ip), vehicle: saline with Tween-80 102 % of control | dose: 0.78 mg/kg/injection, schedule: Q01DX009 (ip), vehicle: saline with Tween-80 102 % of control | dose: 1.56 mg/kg/injection, schedule: Q01DX009 (ip), vehicle: saline with Tween-80 87 % of control | dose: 1.56 mg/kg/injection, schedule: Q01DX009 (ip), vehicle: saline 94 % of control

CC(=O)OCCCC[N+](=O)[O-]
inactive: [1] 98 % of control | [2] 98 % of control | [3] 98 % of control
